Experimental data from ChEMBL document CHEMBL5331124, “Degradation of Hexokinase 2 Blocks Glycolysis and Induces GSDME-Dependent Pyroptosis to Amplify Immunogenic Cell Death for Breast Cancer Therapy” (J Med Chem, 2023).
Activity calls are given as the source filed them. The rule behind the calls is not given here.

Legend:
[1] = Toxicity in BALB/c mouse implanted with mouse 4T1 cells assessed as change in corpuscular hemoglobin concentration at 50 mg/kg, ip measured after 25 days by routine blood test; type: organism-based; details: in vivo, 600 h, time 25 day
4T1 [2] = experiment: Induction of pyroptosis in mouse 4T1 cells assessed as dead cells at 20 uM incubated for 36 hrs by annexin V-FITC staining based flow cytometry analysis (Rvb =17.6 %); type: functional
[3] = Toxicity in BALB/c mouse implanted with mouse 4T1 cells assessed as effect on hemoglobin level at 50 mg/kg, ip measured after 25 days in presence of cisplatin by routine blood test; type: organism-based; details: in vivo, 600 h, time 25 day
4T1 [4] = experiment: Inhibition of colony formation in mouse 4T1 cells at 5 to 20 uM incubated for 48 hrs by giemsa staining based analysis; type: functional, cell-based; details: dose 5-20 µM
4T1 [5] = experiment: Inhibition of glycolysis in mouse 4T1 cells assessed as reduction in extracellular acidification rate at 20 uM incubated for 1 to 4 hrs by seahorse analyzer method; type: functional, cell-based; details: time 1-4 hrs
[6] = Toxicity in BALB/c mouse implanted with mouse 4T1 cells assessed as pathological changes in kidney at 50 mg/kg, ip measured after 25 days in presence of cisplatin by Hematoxylin -eosin staining based analysis; type: organism-based; details: in vivo, 600 h, time 25 day
4T1 [7] = experiment: Antitumor immunity against mouse 4T1 cells implanted in BALB/c mouse model assessed as upregulation of IFN-gamma expression in mouse tumor by ELISA analysis; type: functional, cell-based
[8] = target: T1, Hexokinase-2 (Homo sapiens) (UniProt P52789); experiment: Induction of HK2 degradation in human MDA-MB-231 cells assessed as decrease in Bcl-2 expression at 20 uM measured for 36 hrs by Western blot analysis; type: cell-based
T1 sequence (whole entry): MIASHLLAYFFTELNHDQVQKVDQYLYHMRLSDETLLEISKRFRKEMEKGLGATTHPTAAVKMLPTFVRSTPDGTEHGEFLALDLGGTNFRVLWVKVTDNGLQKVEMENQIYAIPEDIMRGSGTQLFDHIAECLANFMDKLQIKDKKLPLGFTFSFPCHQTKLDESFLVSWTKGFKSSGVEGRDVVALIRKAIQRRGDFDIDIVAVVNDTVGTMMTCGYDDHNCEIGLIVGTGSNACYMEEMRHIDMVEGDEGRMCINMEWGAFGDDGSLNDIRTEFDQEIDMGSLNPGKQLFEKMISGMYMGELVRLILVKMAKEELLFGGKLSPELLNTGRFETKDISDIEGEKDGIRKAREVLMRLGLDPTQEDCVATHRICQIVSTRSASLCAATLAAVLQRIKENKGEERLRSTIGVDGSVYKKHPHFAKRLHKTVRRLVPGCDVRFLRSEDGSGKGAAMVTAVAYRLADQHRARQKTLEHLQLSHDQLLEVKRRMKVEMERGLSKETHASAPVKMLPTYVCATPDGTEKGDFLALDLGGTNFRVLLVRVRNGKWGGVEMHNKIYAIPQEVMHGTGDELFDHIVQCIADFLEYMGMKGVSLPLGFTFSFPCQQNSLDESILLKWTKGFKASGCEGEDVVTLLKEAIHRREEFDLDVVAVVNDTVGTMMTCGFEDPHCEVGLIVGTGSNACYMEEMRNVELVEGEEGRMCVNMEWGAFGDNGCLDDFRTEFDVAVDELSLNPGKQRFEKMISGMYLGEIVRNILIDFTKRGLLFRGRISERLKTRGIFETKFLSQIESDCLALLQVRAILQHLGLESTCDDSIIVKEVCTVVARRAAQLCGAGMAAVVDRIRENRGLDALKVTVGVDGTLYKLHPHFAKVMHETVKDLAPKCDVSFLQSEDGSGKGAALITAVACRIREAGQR

4T1 [9] = experiment: Antitumor activity against mouse 4T1 cells implanted in BALB/c mouse model assessed as nucleus damage at 50 mg/kg, ip measured after 25 days by TUNEL staining based analysis; type: functional, organism-based; details: time 25.0 day
[10] = Toxicity in BALB/c nude mouse xenografted with human MDA-MB-231 cells assessed as effect on mean corpuscular volume at 50 mg/kg, ip measured after 30 days by routine blood test; type: organism-based; details: in vivo, 720 h, time 30 day
[11] = Toxicity in BALB/c mouse implanted with mouse 4T1 cells assessed as effect on red blood cells at 50 mg/kg, ip measured after 25 days in presence of cisplatin by routine blood test; type: organism-based; details: in vivo, 600 h, time 25 day
4T1 [12] = experiment: Induction of pyroptosis in mouse 4T1 cells assessed as reduction in full length caspase-3 level at 20 uM incubated for 36 hrs; type: functional, cell-based
[13] = Toxicity in BALB/c mouse implanted with mouse 4T1 cells assessed as pathological changes in heart at 50 mg/kg, ip measured after 25 days in presence of cisplatin by Hematoxylin -eosin staining based analysis; type: organism-based; details: in vivo, 600 h, time 25 day
4T1 [14] = experiment: Induction of pyroptosis in mouse 4T1 cells assessed as […] in cleaved caspase-3 level at 20 uM incubated for 36 hrs; type: functional, cell-based
4T1 [15] = experiment: Antitumor immunity against mouse 4T1 cells implanted in BALB/c mouse model assessed as upregulation of Il-1beta expression in mouse tumor by ELISA analysis; type: functional, cell-based
[16] = target: Protein cereblon/Hexokinase-2 (Homo sapiens) (UniProt P52789+Q96SW2); experiment: PROTAC activity at CRBN/HK2 in human MDA-MB-231 cells assessed as HK2 degradation at 20 uM incubated for 36 hrs; type: cell-based
Chain of Protein cereblon/Hexokinase-2 (Homo sapiens) (Q96SW2 whole entry, looked up, one chain of several): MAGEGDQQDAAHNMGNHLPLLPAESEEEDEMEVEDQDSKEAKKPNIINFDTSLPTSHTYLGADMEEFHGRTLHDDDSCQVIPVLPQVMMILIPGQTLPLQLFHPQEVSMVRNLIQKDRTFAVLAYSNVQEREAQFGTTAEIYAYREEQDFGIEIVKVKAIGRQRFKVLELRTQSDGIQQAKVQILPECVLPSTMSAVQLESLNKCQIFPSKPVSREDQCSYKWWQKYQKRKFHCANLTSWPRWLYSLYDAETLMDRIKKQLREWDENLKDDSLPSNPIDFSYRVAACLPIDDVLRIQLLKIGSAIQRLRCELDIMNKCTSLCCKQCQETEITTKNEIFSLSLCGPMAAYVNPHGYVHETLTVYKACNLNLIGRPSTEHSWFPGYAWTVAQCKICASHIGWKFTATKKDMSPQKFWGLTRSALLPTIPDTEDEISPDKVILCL

[17] = Toxicity in BALB/c mouse implanted with mouse 4T1 cells assessed as effect on mean corpuscular hemoglobin concentration at 50 mg/kg, ip measured after 25 days in presence of cisplatin by routine blood test; type: organism-based; details: in vivo, 600 h, time 25 day
[18] = target: T1, Hexokinase-2 (Homo sapiens); experiment: Induction of HK2 degradation in human MDA-MB-231 cells assessed as increase in VDAC expression at 20 uM measured for 36 hrs by Western blot analysis; type: cell-based
[19] = Toxicity in BALB/c mouse implanted with mouse 4T1 cells assessed as pathological changes in liver at 50 mg/kg, ip measured after 25 days by Hematoxylin -eosin staining based analysis; type: organism-based; details: in vivo, 600 h, time 25 day
[20] = Toxicity in BALB/c mouse implanted with mouse 4T1 cells assessed as effect on corpuscular volume at 50 mg/kg, ip measured after 25 days by routine blood test; type: organism-based; details: in vivo, 600 h, time 25 day
[21] = Toxicity in BALB/c mouse implanted with mouse 4T1 cells assessed as effect on hemoglobin level at 50 mg/kg, ip measured after 25 days by routine blood test; type: organism-based; details: in vivo, 600 h, time 25 day
786-0 = experiment: Antiproliferative activity against human 786-0 cells assessed as cell growth inhibition measured for 72 hrs by MTT assay; type: functional, cell-based; details: 786-0, 72 h
[22] = Toxicity in BALB/c nude mouse xenografted with human MDA-MB-231 cells assessed as body weight loss at 50 mg/kg, ip measured after 30 days; type: organism-based; details: in vivo, 720 h, time 30 day

**Q.** What does the source list for O=C1CCC(N2C(=O)c3cccc(NCCCCNC(=O)c4nn(Cc5ccc(Cl)cc5Cl)c5ccccc45)c3C2=O)C(=O)N1 (stereo not drawn)?
**A.** Activity [1]: Non-Toxic; Activity (4T1 [2]): 9.44%; Activity [3]: Non-Toxic; inhibition (4T1 [4]): Active; inhibition (4T1 [5]): Active; Activity [6]: Non-Toxic; Activity (4T1 [7]): Active; Activity [8]: Active; Activity (4T1 [9]): Active; Activity [10]: Non-Toxic; Activity [11]: Non-Toxic; Activity (4T1 [12]): Active; Activity [13]: Non-Toxic; Activity (4T1 [14]): Active; Activity (4T1 [15]): Active; Activity [16]: Active; Activity [17]: Non-Toxic; Activity [18]: Active; Activity [19]: Non-Toxic; Activity [20]: Non-Toxic; Activity [21]: Non-Toxic; IC50 (786-0): 34.1 µM; Activity [22]: Non-Toxic
